Test results: ChEMBL document CHEMBL1909046, “DrugMatrix in vitro pharmacology data”

How the values were obtained:
[1] = biological target: T1, Type-2 angiotensin II receptor (Homo sapiens, UniProt P50052); type: cell-based; conditions: cho-k1; note: in other assays of this panel Not Active means under 50% inhibition at 10 µM
T1 sequence (P50052 whole entry): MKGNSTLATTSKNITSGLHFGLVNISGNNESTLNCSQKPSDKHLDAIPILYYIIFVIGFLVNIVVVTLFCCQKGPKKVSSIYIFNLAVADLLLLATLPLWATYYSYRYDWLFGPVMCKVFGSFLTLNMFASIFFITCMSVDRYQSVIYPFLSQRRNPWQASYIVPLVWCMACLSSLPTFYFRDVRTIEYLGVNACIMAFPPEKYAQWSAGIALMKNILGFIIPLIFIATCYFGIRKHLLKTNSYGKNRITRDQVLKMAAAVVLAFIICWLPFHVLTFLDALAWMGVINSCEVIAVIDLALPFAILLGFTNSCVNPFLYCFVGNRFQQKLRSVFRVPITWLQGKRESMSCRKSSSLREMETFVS

[2] = DRUGMATRIX: Calcium Channel Type L, Dihydropyridine radioligand binding (ligand: [3H] Nitrendipine); type: cell membranes, Rattus norvegicus, Wistar, Cerebral cortex, Membrane; conditions: Not Active = under 50% inhibition at 10 µM
[3] = biological target: T2, Vasoactive intestinal polypeptide receptor 1 (Homo sapiens, UniProt P32241); type: cell membranes, Membrane; conditions: ht-29; note: in other assays of this panel Not Active means under 50% inhibition at 10 µM
T2 sequence (P32241 whole entry): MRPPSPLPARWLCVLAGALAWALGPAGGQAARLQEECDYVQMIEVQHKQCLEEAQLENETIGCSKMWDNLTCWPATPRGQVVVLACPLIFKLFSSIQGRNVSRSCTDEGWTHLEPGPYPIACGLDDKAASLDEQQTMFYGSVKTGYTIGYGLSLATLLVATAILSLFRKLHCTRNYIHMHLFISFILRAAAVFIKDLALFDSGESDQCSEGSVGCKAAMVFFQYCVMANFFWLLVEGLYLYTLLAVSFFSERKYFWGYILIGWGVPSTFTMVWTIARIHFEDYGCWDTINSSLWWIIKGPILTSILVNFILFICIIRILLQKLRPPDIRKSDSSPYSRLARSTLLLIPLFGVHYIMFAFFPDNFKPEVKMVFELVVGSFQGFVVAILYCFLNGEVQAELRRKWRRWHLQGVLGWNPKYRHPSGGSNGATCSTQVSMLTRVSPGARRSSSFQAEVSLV

[4] = biological target: Prostaglandin G/H synthase 1 (Homo sapiens, UniProt P23219); test: biochemical; type: tissue-based, Platelet; conditions: platelet;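 note: inhibition of COX-1 enzyme activity, with arachidonic acid supplied as substrate; in other assays of this panel Not Active means under 50% inhibition at 10 µM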
Chain of Prostaglandin G/H synthase 1 (P23219 whole entry): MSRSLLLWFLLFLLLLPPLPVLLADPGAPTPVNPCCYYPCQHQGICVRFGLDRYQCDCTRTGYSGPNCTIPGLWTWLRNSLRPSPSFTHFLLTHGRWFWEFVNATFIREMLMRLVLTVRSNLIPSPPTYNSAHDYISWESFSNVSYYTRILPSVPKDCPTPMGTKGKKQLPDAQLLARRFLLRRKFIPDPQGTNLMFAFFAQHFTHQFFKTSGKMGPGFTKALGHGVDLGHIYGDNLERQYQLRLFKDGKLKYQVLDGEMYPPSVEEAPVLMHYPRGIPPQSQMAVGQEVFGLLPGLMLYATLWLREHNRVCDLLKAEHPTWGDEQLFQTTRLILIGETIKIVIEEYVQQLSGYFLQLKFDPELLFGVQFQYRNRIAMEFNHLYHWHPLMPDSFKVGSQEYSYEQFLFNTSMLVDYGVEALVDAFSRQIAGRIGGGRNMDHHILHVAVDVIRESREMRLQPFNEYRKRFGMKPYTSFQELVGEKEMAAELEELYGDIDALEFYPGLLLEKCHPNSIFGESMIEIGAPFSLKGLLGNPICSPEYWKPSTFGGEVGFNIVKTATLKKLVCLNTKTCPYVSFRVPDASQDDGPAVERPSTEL

[5] = biological target: T3, 3-hydroxy-3-methylglutaryl-coenzyme A reductase (Homo sapiens, UniProt P04035); design: species or system Escherichia coli;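 note: enzyme inhibition assay of HMG-CoA reductase using radiolabeled [14C]HMG-CoA as substrate; in other assays of this panel Not Active means under 50% inhibition at 10 µM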
T3 sequence (P04035 whole entry): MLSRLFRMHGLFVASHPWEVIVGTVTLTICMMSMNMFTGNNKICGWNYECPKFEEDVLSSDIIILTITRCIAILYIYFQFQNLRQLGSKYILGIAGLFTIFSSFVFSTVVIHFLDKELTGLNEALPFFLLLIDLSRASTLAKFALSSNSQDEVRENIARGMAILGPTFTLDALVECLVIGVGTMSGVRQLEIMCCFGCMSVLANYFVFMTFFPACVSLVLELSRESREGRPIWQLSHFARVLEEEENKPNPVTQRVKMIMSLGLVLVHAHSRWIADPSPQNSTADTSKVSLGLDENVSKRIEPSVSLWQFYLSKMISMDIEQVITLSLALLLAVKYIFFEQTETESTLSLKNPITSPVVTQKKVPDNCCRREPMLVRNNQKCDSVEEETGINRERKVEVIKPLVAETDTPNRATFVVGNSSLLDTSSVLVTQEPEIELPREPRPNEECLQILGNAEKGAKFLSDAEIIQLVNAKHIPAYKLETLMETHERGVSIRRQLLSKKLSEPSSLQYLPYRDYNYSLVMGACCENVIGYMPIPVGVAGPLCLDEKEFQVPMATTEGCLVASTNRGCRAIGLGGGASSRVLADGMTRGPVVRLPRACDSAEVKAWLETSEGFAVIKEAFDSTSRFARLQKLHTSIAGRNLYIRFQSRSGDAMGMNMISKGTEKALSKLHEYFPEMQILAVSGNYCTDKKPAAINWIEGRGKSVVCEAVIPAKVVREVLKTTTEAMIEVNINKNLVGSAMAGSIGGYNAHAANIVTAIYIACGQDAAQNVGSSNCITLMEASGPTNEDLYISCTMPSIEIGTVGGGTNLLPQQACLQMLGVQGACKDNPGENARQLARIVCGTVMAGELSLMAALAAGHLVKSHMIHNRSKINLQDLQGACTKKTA

Nitric oxide synthase 1 = Nitric oxide synthase 1 (Rattus norvegicus, UniProt P29476); type: tissue-based, Cerebellum; note: in other assays of this panel Not Active means under 50% inhibition at 10 µM
Chain of Nitric oxide synthase 1 (P29476 whole entry): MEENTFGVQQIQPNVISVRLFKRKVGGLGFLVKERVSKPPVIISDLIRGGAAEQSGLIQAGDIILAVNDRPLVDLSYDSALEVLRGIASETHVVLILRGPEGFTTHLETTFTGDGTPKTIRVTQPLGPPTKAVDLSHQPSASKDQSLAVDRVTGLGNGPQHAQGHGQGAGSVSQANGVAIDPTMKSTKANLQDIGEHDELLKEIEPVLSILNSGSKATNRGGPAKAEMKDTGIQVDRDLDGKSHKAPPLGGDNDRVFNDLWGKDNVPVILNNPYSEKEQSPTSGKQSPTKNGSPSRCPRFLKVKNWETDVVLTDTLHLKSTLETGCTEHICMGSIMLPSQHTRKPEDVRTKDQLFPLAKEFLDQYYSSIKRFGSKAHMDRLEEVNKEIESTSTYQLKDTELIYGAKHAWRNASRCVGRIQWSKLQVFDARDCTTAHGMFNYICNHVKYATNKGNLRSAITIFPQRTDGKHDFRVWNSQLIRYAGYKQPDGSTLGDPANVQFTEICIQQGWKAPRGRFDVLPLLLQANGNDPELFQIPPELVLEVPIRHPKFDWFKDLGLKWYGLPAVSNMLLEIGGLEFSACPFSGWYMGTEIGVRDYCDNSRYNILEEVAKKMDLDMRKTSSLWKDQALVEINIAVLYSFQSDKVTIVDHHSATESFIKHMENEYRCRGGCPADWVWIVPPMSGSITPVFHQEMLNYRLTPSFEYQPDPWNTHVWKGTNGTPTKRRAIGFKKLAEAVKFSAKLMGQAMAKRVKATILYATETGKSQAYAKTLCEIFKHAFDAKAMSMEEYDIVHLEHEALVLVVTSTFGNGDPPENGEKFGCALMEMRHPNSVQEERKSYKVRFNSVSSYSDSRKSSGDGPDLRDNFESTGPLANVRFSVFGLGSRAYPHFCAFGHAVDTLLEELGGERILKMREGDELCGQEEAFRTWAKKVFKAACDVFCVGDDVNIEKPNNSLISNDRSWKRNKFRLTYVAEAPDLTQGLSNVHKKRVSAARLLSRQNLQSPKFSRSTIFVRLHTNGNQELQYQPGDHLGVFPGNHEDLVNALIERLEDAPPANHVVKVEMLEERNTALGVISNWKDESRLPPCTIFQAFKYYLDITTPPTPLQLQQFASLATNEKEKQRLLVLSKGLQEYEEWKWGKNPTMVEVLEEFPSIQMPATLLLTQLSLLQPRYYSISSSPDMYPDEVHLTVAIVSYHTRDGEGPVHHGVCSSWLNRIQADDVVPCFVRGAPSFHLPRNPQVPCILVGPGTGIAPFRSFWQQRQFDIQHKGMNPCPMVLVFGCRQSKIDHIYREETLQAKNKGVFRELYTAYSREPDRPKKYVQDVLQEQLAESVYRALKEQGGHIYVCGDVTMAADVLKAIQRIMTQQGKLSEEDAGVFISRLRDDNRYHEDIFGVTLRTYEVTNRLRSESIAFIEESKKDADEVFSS

[6] = biological target: Matrix metalloproteinase-9 (Homo sapiens, UniProt P14780); test: biochemical; type: cell-based
Chain of Matrix metalloproteinase-9 (P14780 whole entry): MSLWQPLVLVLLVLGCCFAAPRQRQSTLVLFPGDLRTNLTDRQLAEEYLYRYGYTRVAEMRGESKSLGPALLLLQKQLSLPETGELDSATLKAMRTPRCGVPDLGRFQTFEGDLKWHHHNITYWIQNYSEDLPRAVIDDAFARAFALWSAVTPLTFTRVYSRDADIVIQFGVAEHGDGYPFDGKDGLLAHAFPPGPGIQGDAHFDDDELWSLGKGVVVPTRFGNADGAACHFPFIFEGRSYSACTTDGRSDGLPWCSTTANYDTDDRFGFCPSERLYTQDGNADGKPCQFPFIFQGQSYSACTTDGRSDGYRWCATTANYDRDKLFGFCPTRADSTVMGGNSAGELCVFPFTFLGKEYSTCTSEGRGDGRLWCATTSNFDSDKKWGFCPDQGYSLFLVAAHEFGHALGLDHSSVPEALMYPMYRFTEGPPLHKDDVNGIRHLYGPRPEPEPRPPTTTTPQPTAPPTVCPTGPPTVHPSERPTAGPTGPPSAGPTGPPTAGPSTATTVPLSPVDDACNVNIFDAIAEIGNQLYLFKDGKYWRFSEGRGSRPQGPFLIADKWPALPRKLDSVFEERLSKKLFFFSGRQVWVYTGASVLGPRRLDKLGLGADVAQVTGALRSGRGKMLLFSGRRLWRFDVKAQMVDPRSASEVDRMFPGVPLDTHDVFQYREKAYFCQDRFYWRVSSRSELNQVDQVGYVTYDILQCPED

[7] = biological target: Protein kinase C alpha type (Homo sapiens, UniProt P17252); type: cell-based; conditions: sf9

O=C1C(CC[S+]([O-])c2ccccc2)C(=O)N(c2ccccc2)N1c1ccccc1 (stereo not given) [SULFINPYRAZONE]
Not Active: IC50 [1] | IC50 [2] | Ki [2] | IC50 [3] | IC50 [4] | IC50 [5] | IC50 (Nitric oxide synthase 1) | IC50 [6] | IC50 [7]

C[C@H]1C[C@@H]2[C@H]([C@@H](O)C[C@@]3(C)[C@H]2CC[C@]3(O)C(=O)CO)[C@@]2(C)C=CC(=O)C=C12 [METHYLPREDNISOLONE]
Not Active: IC50 [1] | IC50 [2] | Ki [2] | IC50 [3] | IC50 [4] | IC50 [5] | IC50 (Nitric oxide synthase 1) | IC50 [6] | IC50 [7]

N#Cc1ccc(C(c2ccc(C#N)cc2)n2cncn2)cc1 [LETROZOLE]
Not Active: IC50 [1] | IC50 [2] | Ki [2] | IC50 [3] | IC50 [4] | IC50 [5] | IC50 (Nitric oxide synthase 1) | IC50 [6] | IC50 [7]

COc1cc2nc(N3CCN(C(=O)C4CCCO4)CC3)nc(N)c2cc1OC (stereo not given) [TERAZOSIN]
Not Active: IC50 [1] | IC50 [2] | Ki [2] | IC50 [3] | IC50 [4] | IC50 [5] | IC50 (Nitric oxide synthase 1) | IC50 [6] | IC50 [7]

O=C(O)c1cn(-c2ccc(F)cc2)c2cc(N3CCNCC3)c(F)cc2c1=O [SARAFLOXACIN]
Not Active: IC50 [1] | IC50 [2] | Ki [2] | IC50 [3] | IC50 [4] | IC50 [5] | IC50 (Nitric oxide synthase 1) | IC50 [6] | IC50 [7]

CO[C@H]1/C=C/O[C@@]2(C)Oc3c(C)c(O)c4c(O)c(c(/C=N/N5CCN(C6CCCC6)CC5)c(O)c4c3C2=O)NC(=O)/C(C)=C\C=C\[C@H](C)[C@H](O)[C@@H](C)[C@@H](O)[C@@H](C)[C@H](OC(C)=O)[C@@H]1C [RIFAPENTINE]
Not Active: IC50 [1] | IC50 [2] | Ki [2] | IC50 [3] | IC50 [4] | IC50 [5] | IC50 (Nitric oxide synthase 1) | IC50 [6] | IC50 [7]

CCCCOc1cc(CC2CNC(=O)N2)ccc1OC (stereo not given) [RO-201724]
Not Active: IC50 [1] | IC50 [2] | Ki [2] | IC50 [3] | IC50 [4] | IC50 [5] | IC50 (Nitric oxide synthase 1) | IC50 [6] | IC50 [7]

CC[C@@H](C(=O)[C@@H](C)[C@@H](O)[C@H](C)[C@@H]1O[C@@H]([C@@H](CC)C(=O)O)CC[C@@H]1C)[C@H]1O[C@]2(C=C[C@@H](O)[C@]3(CC[C@@](C)([C@H]4CC[C@](O)(CC)[C@H](C)O4)O3)O2)[C@H](C)C[C@@H]1C [SALINOMYCIN]
Not Active: IC50 [1] | IC50 [2] | Ki [2] | IC50 [3] | IC50 [4] | IC50 [5] | IC50 (Nitric oxide synthase 1) | IC50 [6] | IC50 [7]

CCCCNc1ccc(C(=O)OCCN(C)C)cc1 [TETRACAINE]
Not Active: IC50 [1] | IC50 [2] | Ki [2] | IC50 [3] | IC50 [4] | IC50 [5] | IC50 (Nitric oxide synthase 1) | IC50 [6] | IC50 [7]

CCN(CC)CCNC(=O)c1cc(S(C)(=O)=O)ccc1OC [TIAPRIDE]
Not Active: IC50 [1] | IC50 [2] | Ki [2] | IC50 [3] | IC50 [4] | IC50 [5] | IC50 (Nitric oxide synthase 1) | IC50 [6] | IC50 [7]
